# Columns and labels:
# [1] = target: T1, human PR-B receptor (Homo sapiens, UniProt P06401); assay: PR-B transactivation (CHO, MMTV-LUC); type: cell-based
# T1 sequence (P06401 1-933): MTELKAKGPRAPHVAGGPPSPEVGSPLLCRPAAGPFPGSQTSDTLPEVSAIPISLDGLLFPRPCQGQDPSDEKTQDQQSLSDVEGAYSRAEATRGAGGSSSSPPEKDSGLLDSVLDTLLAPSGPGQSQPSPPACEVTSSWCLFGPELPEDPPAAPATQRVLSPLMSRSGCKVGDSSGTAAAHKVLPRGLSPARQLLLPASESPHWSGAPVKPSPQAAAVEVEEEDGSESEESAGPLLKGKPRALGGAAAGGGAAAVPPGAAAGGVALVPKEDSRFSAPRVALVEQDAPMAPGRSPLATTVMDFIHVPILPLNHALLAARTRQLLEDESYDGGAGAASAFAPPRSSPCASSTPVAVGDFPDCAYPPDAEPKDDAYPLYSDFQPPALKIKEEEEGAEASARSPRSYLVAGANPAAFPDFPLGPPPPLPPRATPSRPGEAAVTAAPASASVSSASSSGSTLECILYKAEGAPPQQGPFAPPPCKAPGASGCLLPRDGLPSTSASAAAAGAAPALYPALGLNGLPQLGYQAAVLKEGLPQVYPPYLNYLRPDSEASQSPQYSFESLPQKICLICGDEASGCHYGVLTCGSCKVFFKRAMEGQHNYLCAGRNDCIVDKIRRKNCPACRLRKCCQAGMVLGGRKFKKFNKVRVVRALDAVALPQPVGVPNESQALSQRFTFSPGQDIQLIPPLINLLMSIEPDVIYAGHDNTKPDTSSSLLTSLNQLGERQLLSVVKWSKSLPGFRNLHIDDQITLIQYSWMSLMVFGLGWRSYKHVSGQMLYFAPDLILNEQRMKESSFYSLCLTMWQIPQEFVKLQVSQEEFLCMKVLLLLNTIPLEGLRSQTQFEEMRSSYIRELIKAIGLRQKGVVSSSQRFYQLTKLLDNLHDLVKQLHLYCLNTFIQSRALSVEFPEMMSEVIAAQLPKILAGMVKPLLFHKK
# Source text: The vector pcDNA3.1 coding sequence for the full length of human PRA and PRB (cDNA ORF clone in pcDNA3.1+/C-(K)-DYK) was used as an expression vector for PR isoform A and B, respectively. Vector pGL4.36 coding for the progesterone responsive element MMTV and firefly luciferase reporter vector [luc2P/Hygro] were used as reporter systems (pGL4.36-MMTV/LUC).
# A sufficient transactivation signal was achieved using stable transfection for the human PRA and PRB receptors and transient transfection for the MMTV-luciferase reporter gene. Therefore, the first stable transfection with the receptor of interest was performed. Thus, 0.5x10^6 CHO cells per well were plated into 6-well plates in transfection medium w/o antibiotics (RPMI phenol-free, 10% FBS,2mM L-glutamine). When the cells reached 80% confluency, transfection with receptor using FuGENE 6 in Opti-MEM medium was accomplished according to the manufacturer’s instruction. After 48h of transfection, stably transfected cells were cultured in a growth medium containing an antibiotic (G418 500 µg/mL). Only cells with the resistance gene (resistance to G418), which had been transfected together with the DNA for PRA and PRB were able to grow in this medium. Consequently, growing cell clones were selected for further steps as stable transfectants. The CHO cells stably transfected with the expression of PRA or PRB were transiently transfected with promoter MMTV/LUC vectors. For this purpose, cells with a density of 12.5x10^3 per well in a 96-well plate were transfected using transfection reagent FuGENE and Opti-MEM medium, following the manufacturer’s instructions. The recovery of cells lasted 24h and they were then moved into the culture medium and treated for 24h with test compounds.
# After 24h incubation of cells with tested compounds, luciferase activity was measured using a VICTOR™ X Multilabel Plate Reader -Perkin Elmer.
# [2] = tested on: orchiectomized male Wistar rats; assay: Hershberger assay; type: in vivo, rat; conditions: 3, 10 and 30 mg/animal/day s.c., 7 days; ± Testosterone propionate 1 mg/animal/day
# Procedure: To test EC313 for potential androgenic or anti-androgenic potential, the Hershberger assay was used. Orchiectomized male Wistar rats were treated for 7 consecutive days with daily subcutaneous injections of EC313 (3, 10, and 30 mg/animal/day).
# The potential anti-androgenic activity was assessed by co-administration of Testosterone propionate (TP; 1 mg/animal/day s.c.), which also served as the positive control, and EC313. The vehicle served as the negative control. One day after the last treatment, animals were sacrificed and the prostate gland and the seminal vesicles were removed and weighed. The relative weight of these organs, expressed as mg/100 g body weight, served as the endpoint.
# [3] = tested on: cycling guinea pigs; assay: Ovulation inhibition in cycling guinea pigs; type: in vivo, guinea pig; conditions: for Number of ovulations vs. number of inseminated females: cycle days 10-17
# Procedure: Test compounds were administered once daily from cycle days 10-17 by s. c. injection using 0.2 mL vehicle (benzyl-benzoate/castor oil, ratio 1 + 4 v/v). The time of autopsy (day 18) was 24-48h after the expected ovulation at the end of the treatment cycle. This design permits the study of the effects of the tested compounds on the expected ovulation. Fresh CL were evidence of a recent ovulation.
structure (smiles),measurement,setting,value
C[C@]12C[C@H](c3ccc(-c4ccoc4)cc3)C3=C4CCC(=O)C=C4CC[C@H]3[C@@H]1CC[C@]21OCCC1=C(F)F [EC313],potency relative to Mifepristone,[1]; PR-B antagonism,approximately 13%
same,agonistic activity,"[1]; PR-B, high nM concentrations",Only marginal agonistic activity
same,IC50,"[1]; PR-B, set of 6 experiments, Promegestone 1.0 nM, read-out: average IC50, antagonism",2.5 ± 0.7 nM
same,androgenic / anti-androgenic effects (prostate plus seminal vesicle weights),[2],neither significant androgenic nor anti-androgenic effects
same,Number of ovulations vs. number of inseminated females,[3]; 0.1 mg/animal/day s.c.,1/5
same,Number of ovulations vs. number of inseminated females,[3]; 1.0 mg/animal/day s.c.,0/5
same,Number of ovulations vs. number of inseminated females,[3]; 10.0 mg/animal/day s.c.,0/8
same,inhibition of ovulation,[3]; 1 and 10 mg/animal/day s.c.,Full inhibition of ovulation
same,effects in the vaginal epithelium,"[3]; non-pregnant guinea pigs, all tested dose levels, 0.1 to 10.0 mg/animal/day s.c.",mucification
